From patent publication US9573972B2, “Nurotoxic sterol glycosides” (priority 2008, dated 2017) come the findings set out here.

The structures appear in SMILES notation.

The subject of one data set is Cytochrome c oxidase. Kind of data set: Cytochrome c oxidase histochemistry. The class given is in vivo, mouse. The conditions noted are these: SG-fed vs control. How it is done:
Tissue-mounted slides were processed for […] in a manner adapted from (Seligman et al., J. Cell. Biol. 1968; 38: 1-14) and Wong-Riley, (1979), Brain Res. 171, 11-28. Sections were rinsed in coplin jars for 15 minutes at RT in three changes of PBS and subsequently incubated with a media comprised of 50 mg of 3,3′-diaminobenzidine tetrahydrochloride (DAB) (DAB substrate system, Vector Laboratories, Burlingame, Calif., USA), 90 mL 0.1M phosphate buffer, 20 mg cytochrome c (type III, Sigma-Aldrich Co., Oakville, ON, Canada), and 4 g of sucrose in a dish submerged in a water bath maintained at 37° C. in the dark for 2 hours. The sections were monitored closely for the brown reaction product to appear within the tissue. Once a medium-brown color was achieved, slides were removed from the incubation media and rinsed for 15 minutes in three changes of PBS to stop the reaction. This was followed with a 2 minutes rinse in distilled water to remove residue from the slides. The slides were dried under a fume hood and cover-slipped with Entellen (Merck, Darmstadt, Germany).
The numbers of immunoreactive somata or inclusions were counted across the ventral horn of the spinal cord, across brain hemispheres, or per dorsal or ventral root with the 40× objective lens in a 600 μm/600 μm area within region perimeters defined by a mouse brain atlas (2001). For each animal, eight cross-sections per spinal cord or brain region were studied. […] For quantification of the level of mitochondrial activity (cytochrome c oxidase labelling) in the lumbar spinal cord or tyrosine hydroxylase immunoreactivity in the substantia nigra pars compacta and striatal sections, images captured using the Motic B5 Professional Series 3.0 microscope (Motic Instruments Inc., Richmond, ON) and analyzed using Motic B5 Professional, Motic Images Advanced 3.0 (Motic Instruments Inc., Richmond, ON) were scanned into a TIFF format file and analysed using the NIH Image J 1.37 software to measure density levels of antibody labelling. […]

Another data set has as its system male CD-1 mice. Kind of data set: Open field monitoring, SG-fed mice. The class given is in vivo, mouse. The note with it: SG-fed vs control. The text has this: Five-month old male CD-1 mice (30.1-35.7 g, 7.5 cm-8.8 cm) were purchased from Charles River (Wilmington, Mass.). Adult mice were chosen to mimic the mean age of onset of ALS-PDC (Kurland, L. T. (1988a) Trends Neurosci. 11, 51-4; Kurland, L. T., et al. (1994) Amyotrophic lateral sclerosis-parkinsonism-dementia complex on Guam: epidemiologic and etiological perspectives. 109-131). Thirty mice for the SG study were randomly divided into 2 groups (14 control and 16 experimental animals). All animals were housed singly in a virus-free barrier facility in a room maintained at 22° C. under a 12 hour light/dark cycle. The mice were provided ad libitum access to food and water.
The synthetic SG was mixed with finely ground Purina Chow mouse pellets (Mouse Diet™, Purina) to create the experimental pellets with a SG content of 1000 μg per pellet. Dry materials were blended with a sterile silicon spatula. For every 5 g of standard feed, 2.5 mL of doubly-distilled water (dd)H2O was added and the dough was kneaded and round up into pellets. A single sterol glucoside containing pellet was placed in the feeding tray each morning before the addition of regular mouse chow (ad libitum). All experimental pellets were entirely consumed by the mice each day. Control mice were fed standard mouse chow pellets of identical weight with no additives. SG feeding was conducted daily for 15 weeks and mice were behaviorally monitored until sacrifice at 35 weeks (time point 1) or 52 weeks (time point 2).
Open field monitoring: Spontaneous activity in an open field is considered one of the most standardized general measures of motor function (Crawley, 2000). The open field test can also reveal stress response in animals (i.e. defensive burying or thigmotaxis) (Karl et al., Exp Toxicol Pathol., 2003, 55(1):69-83). Open field testing of each animal was conducted every two weeks. A single mouse was placed in one of four round open field arena/tubs (approximately 1 m diameter) to permit the testing of four animals per 5 minute trial. […] This in turn, increases the likelihood of detection of fear-based behavior (Crawley, 2000) and minimizes habituation of the animal to the open field (Crawley, 2000). Testing arenas were cleaned with 70% ethanol before the testing of each animal and with quatricide at the end of each testing session. Movements were recorded using a video camera mounted on the ceiling. Video clips were reviewed and were manually scored or automatically analysed on an automated video tracking software (Ethovision® 3.1, Noldus Information Technologies Inc., Leesburg, Va., USA). Scoring was done on videotaped sessions, rather than in-person at the time of testing to avoid the introduction of confounding variables by the presence of an observer in close proximity to the mice (Crawley, 2000).

`CC[C@H](/C=C/[C@@H](C)[C@H]1CC[C@H]2[C@@H]3CC=C4C[C@@H](O[C@@H]5O[C@H](CO)[C@@H](O)[C@H](O)[C@H]5O)CC[C@]4(C)[C@H]3CC[C@]12C)C(C)C` [SG, Stigmasterol β-D-Glucopyranoside]: the “Cytochrome c oxidase activity” value with Cytochrome c oxidase (Time-point 1 (35 wk)) and in the data set on Cytochrome c oxidase (Time-point 2 (52 wk)) was “(ns)” throughout. Besides, the “Cytochrome c oxidase activity, difference between groups” value in the data set on Cytochrome c oxidase (at 35 or 52 weeks) is on record as “no significant differences”. The Total distance moved result with male CD-1 mice (Time-point 1 (35 wk)) was “Total distance moved (ns)”. The results for the “Total distance to zone border” value in the data set with male CD-1 mice (Time-point 1 (35 wk)) and in the data set on male CD-1 mice (Time-point 2 (52 wk)) were “Total distance to zone border (ns)” and “Total distance to zone border* (*p < 0.05)”, respectively. Besides, in the data set on male CD-1 mice (Time-point 1 (35 wk)), the Total turn angle result is “Total turn angle (ns)”.
